These results are taken from patent US10512269B2, “Herbicidal compounds” (Syngenta Participations AG, priority 2015, dated 2019).

What all share (assay): B1 Post-emergence efficacy, glasshouse pot test
What all share (type): in vivo
Conditions in all cases: post-emergence spray, evaluated after 13 days

The subject of assay [1] is Amaranthus retoflexus (AMARE). Here is the method: (§1) Seeds of a variety of test species are sown in standard soil in pots: —Solanum nigrum (SOLNI), Amaranthus retoflexus (AMARE), Setaria faberi (SETFA), Echinochloa crus-galli (ECHCG), Ipomoea hederacea (IPOHE), Lolium perenne (LOLPE). After 8 days cultivation (post-emergence) under controlled conditions in a glasshouse (at 24/16° C., day/night; 14 hours light; 65% humidity), the plants are sprayed with an aqueous spray solution derived from the formulation of the technical active ingredient in acetone/water (50:50) solution containing 0.5% Tween 20 (polyoxyethelyene sorbitan monolaurate, CAS RN 9005-64-5). Compounds are applied at 1000 g/ha and 250 g/ha. The test plants are then grown in a glasshouse under controlled conditions in a glasshouse (at 24/16° C., day/night; 14 hours light; 65% humidity) and watered twice daily. After 13 days, the test is evaluated for the percentage damage caused to the plant. The biological activities are assessed on a five point scale (5=80-100%; 4=60-79%; 3=40-59%; 2=20-39%; 1=0-19%). A blank value in the table is indicative that the compound was not tested on that species.

In assay [2] the test system is Setaria faberi (SETFA). As to the method: as §1
For assay [3], the system named is Ipomoea hederacea (IPOHE). As to the method:
as §1

In assay [4] the test system is Solanum nigrum (SOLNI). Here is the method: as §1
In assay [5] the test system is Lolium perenne (LOLPE). As to the method:
as §1

Assay [6] relates to Echinochloa crus-galli (ECHCG). As to the method:
as §1

Each structure is given as a SMILES string.

Take `C#CCn1c(=O)c(-c2c(Cl)ccc(Cl)c2OCc2cnc(Cl)s2)c(O)c2scnc21` [Compound 1.19, 6-[3,6-dichloro-2-[(2-chlorothiazol-5-yl)methoxy]phenyl]-7-hydroxy-4-prop-2-ynyl-thiazolo[4,5-b]pyridin-5-one]: the “percentage damage caused to the plant, five point scale, AMARE” value (shortened to “percentage damage caused … AMARE”) in assay [1] (250 g/ha) and in assay [1] (1000 g/ha) was 5 (5=80-100%) in each case. In addition, the “percentage damage caused to the plant, five point scale, SETFA” value (“percentage damage caused … SETFA” for short) in assay [2] (250 g/ha) and in assay [2] (1000 g/ha) was 5 (5=80-100%) in each case. In addition, the “percentage damage caused to the plant, five point scale, IPOHE” value (“percentage damage caused … IPOHE” below) in assay [3] (250 g/ha) and in assay [3] (1000 g/ha) was 5 (5=80-100%) each time. The “percentage damage caused to the plant, five point scale, SOLNI” value (shortened to “percentage damage caused … SOLNI”) in assay [4] (250 g/ha) and in assay [4] (1000 g/ha) was 5 (5=80-100%) each time. Also, the “percentage damage caused to the plant, five point scale, LOLPE” value (“percentage damage caused … LOLPE” for short) in assay [5] (250 g/ha) and in assay [5] (1000 g/ha) was 5 (5=80-100%) in each case. For the same molecule, the “percentage damage caused to the plant, five point scale, ECHCG” value (“percentage damage caused … ECHCG” below) in assay [6] (250 g/ha) and in assay [6] (1000 g/ha) was 5 (5=80-100%) throughout.

Take `O=c1c(-c2c(Cl)ccc(Cl)c2OCc2cnc(Cl)s2)c(O)c2scnc2n1CC(F)F` [Compound 3.19]: the “percentage damage caused … AMARE” value in assay [1] (250 g/ha) and in assay [1] (1000 g/ha) was 5 (5=80-100%) throughout. The “percentage damage caused … SETFA” value in assay [2] (250 g/ha) and in assay [2] (1000 g/ha) was 5 (5=80-100%) in each case. Also, the “percentage damage caused … IPOHE” value in assay [3] (250 g/ha) and in assay [3] (1000 g/ha) was 5 (5=80-100%) in each case. In addition, the “percentage damage caused … SOLNI” value in assay [4] (250 g/ha) and in assay [4] (1000 g/ha) was 5 (5=80-100%) throughout. Further, the “percentage damage caused … LOLPE” value in assay [5] (250 g/ha) and in assay [5] (1000 g/ha) was 5 (5=80-100%) in each case. For the same molecule, the “percentage damage caused … ECHCG” value in assay [6] (250 g/ha) is given as 4 (4=60-79%); in assay [6] (1000 g/ha), 5 (5=80-100%).

As to `C#CCN1c2ncsc2C(O)=C(c2c(Cl)ccc(Cl)c2OCc2ccccc2)S1(=O)=O` [Compound 5.22], the “percentage damage caused … AMARE” value in assay [1] (250 g/ha) is given as 2 (2=20-39%); in assay [1] (1000 g/ha) it was 1 (1=0-19%). For the same molecule, the results for the “percentage damage caused … SETFA” value in assay [2] (250 g/ha) and in assay [2] (1000 g/ha) were 1 (1=0-19%) and 2 (2=20-39%), respectively. In addition, the “percentage damage caused … IPOHE” value in assay [3] (250 g/ha) and in assay [3] (1000 g/ha) was 2 (2=20-39%) in each case. Besides, the “percentage damage caused … SOLNI” value in assay [4] (250 g/ha) and in assay [4] (1000 g/ha) was 1 (1=0-19%) each time. Moreover, the “percentage damage caused … LOLPE” value in assay [5] (250 g/ha) and in assay [5] (1000 g/ha) was 2 (2=20-39%) each time. The “percentage damage caused … ECHCG” value in assay [6] (250 g/ha) and in assay [6] (1000 g/ha) was 2 (2=20-39%) throughout.

Turning to `C#CCn1c(=O)c(-c2c(Cl)ccc(Cl)c2OCc2ccccc2)c(O)c2nsnc21` [Compound 9.22, 6-(2-benzyloxy-3,6-dichloro-phenyl)-7-hydroxy-4-prop-2-ynyl-[1,2,5]thiadiazolo[3,4-b]pyridin-5-one], the “percentage damage caused … AMARE” value was 4 (4=60-79%) in assay [1] (250 g/ha) and 5 (5=80-100%) in assay [1] (1000 g/ha). For the same molecule, the “percentage damage caused … SETFA” value in assay [2] (250 g/ha) is listed as 2 (2=20-39%); in assay [2] (1000 g/ha), 5 (5=80-100%). In addition, the “percentage damage caused … IPOHE” value in assay [3] (250 g/ha) and in assay [3] (1000 g/ha) was 5 (5=80-100%) throughout. Also, the “percentage damage caused … SOLNI” value in assay [4] (250 g/ha) is reported as 4 (4=60-79%); in assay [4] (1000 g/ha), 5 (5=80-100%). The “percentage damage caused … LOLPE” value in assay [5] (250 g/ha) is 4 (4=60-79%); in assay [5] (1000 g/ha) it was 5 (5=80-100%). Also, the “percentage damage caused … ECHCG” value in assay [6] (250 g/ha) is given as 2 (2=20-39%); in assay [6] (1000 g/ha) it was 3 (3=40-59%).

As for `O=S1(=O)C(c2c(Cl)ccc(Cl)c2OCc2ccccc2)=C(O)c2scnc2N1CC(F)F` [Compound 13.22], the “percentage damage caused … AMARE” value in assay [1] (250 g/ha) was 3 (3=40-59%); in assay [1] (1000 g/ha), 2 (2=20-39%). For the same molecule, the results for the “percentage damage caused … SETFA” value in assay [2] (250 g/ha) and in assay [2] (1000 g/ha) were 1 (1=0-19%) and 2 (2=20-39%), respectively. The “percentage damage caused … IPOHE” value in assay [3] (250 g/ha) is given as 4 (4=60-79%); in assay [3] (1000 g/ha), 5 (5=80-100%). In addition, the “percentage damage caused … SOLNI” value in assay [4] (250 g/ha) is on record as 3 (3=40-59%); in assay [4] (1000 g/ha), 4 (4=60-79%). For the same molecule, the “percentage damage caused … LOLPE” value in assay [5] (250 g/ha) and in assay [5] (1000 g/ha) was 2 (2=20-39%) throughout. The “percentage damage caused … ECHCG” value in assay [6] (250 g/ha) is 1 (1=0-19%); in assay [6] (1000 g/ha), 2 (2=20-39%).

Turning to `C#CCn1c(=O)c(-c2c(F)ccc(Cl)c2OCc2ccccc2)c(O)c2csnc21` [Compound 15.22], the “percentage damage caused … AMARE” value in assay [1] (250 g/ha) is reported as 4 (4=60-79%); in assay [1] (1000 g/ha) it was 5 (5=80-100%). The “percentage damage caused … SETFA” value was 1 (1=0-19%) in assay [2] (250 g/ha) and 3 (3=40-59%) in assay [2] (1000 g/ha). The “percentage damage caused … IPOHE” value in assay [3] (250 g/ha) is reported as 4 (4=60-79%); in assay [3] (1000 g/ha) it was 3 (3=40-59%). Also, the “percentage damage caused … SOLNI” value is 4 (4=60-79%) in assay [4] (250 g/ha) and 5 (5=80-100%) in assay [4] (1000 g/ha). Moreover, the “percentage damage caused … LOLPE” value in assay [5] (250 g/ha) was 3 (3=40-59%); in assay [5] (1000 g/ha), 4 (4=60-79%). In addition, the “percentage damage caused … ECHCG” value in assay [6] (250 g/ha) is 2 (2=20-39%); in assay [6] (1000 g/ha), 3 (3=40-59%).
